In patent US6770649B2, “1-[1-(hetero)aryl-1-perhydroxyalkylmethyl]-piperazine compounds, process for their preparation and pharmaceutical compositions containing them” (Solvay Pharmaceuticals GmbH, priority 2001, dated 2004):
Where two headings read alike, the source gives them in different places.

Legend:
human NK-2 receptor = biological target: T1, human NK-2 receptor (Homo sapiens, UniProt P21452); assay: Binding power of the test substances to NK-2 receptors in vitro ([3H]-SR 48968 displacement, CHO cell membranes); conditions: displacement of [3H]-SR 48968, 90 min incubation, average of at least three measurements, 10^-6 to 10^-10 mol/l, read-out: pKi, affinity to human NK-2 receptors (converted)
T1 construct: expressed in transfected cells; host or cells: CHO cells (membrane preparation)
T1 sequence (P21452 1-398): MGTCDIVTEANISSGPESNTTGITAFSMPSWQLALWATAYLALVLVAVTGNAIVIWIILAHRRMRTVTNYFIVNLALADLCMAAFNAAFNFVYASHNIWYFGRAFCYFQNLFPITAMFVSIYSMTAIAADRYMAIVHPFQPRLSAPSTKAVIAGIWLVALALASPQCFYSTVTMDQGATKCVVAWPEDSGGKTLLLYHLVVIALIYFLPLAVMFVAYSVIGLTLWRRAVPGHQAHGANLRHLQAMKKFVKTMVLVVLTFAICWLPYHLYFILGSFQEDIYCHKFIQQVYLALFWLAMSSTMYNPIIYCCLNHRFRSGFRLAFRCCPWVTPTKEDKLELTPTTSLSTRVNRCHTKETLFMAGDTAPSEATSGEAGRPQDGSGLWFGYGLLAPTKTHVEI
Experimental: 1. Determination of the Binding Power of the Test Substances to NK-2 Receptors in vitro
The affinity of the test substances to human NK-2 receptors was measured in vitro. The ability of the test substances to displace the selective NK-2 receptor antagonist SR 48968 (=saredutant) used as reference ligand from its corresponding bond was determined.
The receptor binding studies were carried out with radioactively marked [^3H]-SR 48968 (from Amersham) as ligand. For the binding test, different samples of a membrane preparation of CHO cells (=[…]), which express the human NK-2 receptor (for preparation, see N. P. Gerard et al., Journal of Biological Chemistry 265/33 (1990) 20455-20462), were incubated for 90 minutes (=min.) with a solution of the marked ligand, with the incubation mixtures containing no test substance or additions of different concentrations of test substance. Then in each case the membrane-bound ligands in the samples were separated from free ligands by filtration. The fraction remaining in the filter was washed several times with buffer solution, before its radioactivity was measured using a liquid scintillation counter. That concentration which effects half-maximum displacement of the bound reference ligand was determined as IC50 of the respective test substance. The inhibition constant (Ki value) of the test substance was calculated from the respective IC50 value, and was stated as the negative logarithmised value thereof (pKi).
For the compounds of Examples 1 to 39, the affinity to human NK-2 receptors was determined in each case by at least three measurements of the test substances in concentration series of 10^−6 to 10^−10 mol/l. If several measurements were performed, the average thereof was listed each time.

NK-2 receptors [1] = biological target: T2, NK-2 receptors (Cavia porcellus, UniProt Q64077); assay: Functional NK-2 antagonism on isolated guinea pig gall-bladder preparations (NKA-induced contraction); format: cell-based; conditions: inhibition of contraction caused by NKA 0.1 μmol/l; two hours' incubation; Pirbright-White guinea pig gall-bladder
T2 construct: the NK-2 receptors present in the gall-bladder preparations; from tissue; host or cells: Pirbright-White guinea pig: isolated gall-bladder (A2); anaesthetised whole animal (A3)
T2 sequence (Q64077 1-402): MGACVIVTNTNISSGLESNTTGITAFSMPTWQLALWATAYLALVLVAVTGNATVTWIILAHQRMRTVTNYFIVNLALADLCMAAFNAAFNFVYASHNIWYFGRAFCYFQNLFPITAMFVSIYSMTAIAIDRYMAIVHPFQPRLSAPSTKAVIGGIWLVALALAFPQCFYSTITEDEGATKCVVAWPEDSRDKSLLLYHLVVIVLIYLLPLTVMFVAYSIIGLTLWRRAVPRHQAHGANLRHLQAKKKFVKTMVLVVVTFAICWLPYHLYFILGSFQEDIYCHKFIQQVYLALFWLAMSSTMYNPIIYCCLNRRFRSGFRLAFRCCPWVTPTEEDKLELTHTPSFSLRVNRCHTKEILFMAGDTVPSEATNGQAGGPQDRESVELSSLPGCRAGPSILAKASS
Experimental: 2. Determination of the Functional Antagonism of the Test Substances on Isolated Guinea Pig Tissue in vitro
The NK-2 receptor-antagonising action of the test substances was determined on isolated gall-bladder preparations from Pirbright-White guinea pigs, held in an oxygen-saturated nutrient solution. To this end, the preparations were fastened on one hand in the nutrient solution to organ holders and on the other hand on a force meter by a thread.
In this test the NK-2 receptors present in the gall-bladder preparations were stimulated with the natural NK-2 receptor agonist neurokinin A (=NKA; 0.1 μmol/l) and the contractions of the preparations caused thereby were measured as contractility in mN (=preliminary value) measured. Then NKA was rinsed out of the preparations with NKA-free solution and the test substances were added in a concentration of 10^−7 mol/l. After two hours' incubation of the preparations with the test substances, the contractions of the preparations then still caused by renewed NKA addition were again measured and the results were given as percentages, relative to the contractions initially measured, caused solely by NKA addition. The concentration of the test substances was increased iteratively in the subsequent experiments as a function of the result in logarithmic whole or half steps, until at least one concentration above or below 50% inhibition of contraction was determined (up to at most 10^−5 mol/l). For each concentration, the average value of inhibition of contraction was calculated from 2 to 4 preparations. In each case, the concentration of half-maximum inhibition (IC50) per test substance was calculated as characteristic variable. In each case the logarithmised value of the IC50 per test substance is given as pIC50 in [mol/l].

NK-2 receptors [2] = biological target: T2, NK-2 receptors; assay: NK-2-receptor-antagonistic effectiveness in vivo in anaesthetised guinea pigs (NKA test stimulus); set-up: species or system guinea pig; conditions: for ED50: guinea pig
Description: 3. Determination of the NK-2-receptor-antagonistic Effectiveness of the Test Substances in vivo
The NK-2- and NK-1-antagonistic activities of the test substances were investigated in anaesthetised guinea pigs in each case after intravenous (=i.v.) and oral (=p.o.) administration in vivio. With the present test model it is possible to detect both NK-2-antagonistic effects in three different organ systems (respiratory tracts, colon and circulation) and NK-1-antagonistic effects (rapid drop in blood pressure) in an animal simultaneously.
Pirbright-White guinea pigs of a body weight of 500-700 g were anaesthetised with ketamine/xylazine (67/13 mg/kg subcutaneously, initial dose, further doses administered as required). The animals were provided with an intravenous catheter in order to administer the substance and an intra-arterial catheter to measure the blood pressure. The animals were artificially ventilated via a tracheal cannula and the respiratory pressure was recorded by means of a pressure transducer. A balloon was introduced into the distal colon of the animals for manometric recording of colon motility by means of a pressure transducer. Blood pressure, heart rate, respiratory pressure and colonic pressure were measured continuously for each animal and plotted on a recorder and by means of a digital data-processing system. Neurokinin A (=NKA; 200 pmol/animal) was administered i.v. as a bolus as a test stimulus to stimulate the NK-1- and the NK-2 receptors. An addition of NKA of this type results in a great increase in respiratory pressure (bronchoconstriction) and colonic pressure, and in a biphasic drop in blood pressure. The first phase of hypotension (=phase of maximum hypotension within the first minute after administration of NKA) is mediated via NK-1 receptors, since they can be blocked completely by specific NK-1 receptor antagonists. The second phase of delayed hypotension (=phase of maximum hypotension after 2-5 min.) on the other hand is mediated via NK-2 receptors, since they can be blocked by specific NK-2 receptor antagonists. The doses of the test substances are given as ED50 values which each result in a response to the NKA test stimulus which is reduced to 50% of the initial value, as characteristic variables for the individual measurement parameters bronchoconstriction, colonic pressure and change in blood pressure mediated by NK-1 or NK-2.
The antagonistic effects of the test substances were first investigated in cumulative form, the time of the NKA test stimulus being 1 min. after the administration of the respective doses of the test substances had ended. These ED50 values obtained from cumulative dose effect curves are plotted in Table 2 below. In order additionally to detect the variation over time of the antagonistic effects of the test substances, the action of the NKA test stimulus was determined at different times (1, 30, 60, 90, 120, 150 and 180 min.) after administration of the test substances.

Row | Structure (SMILES) | Ki (human NK-2 receptor) | IC50 (NK-2 receptors [1]) | NK-2-receptor-antagonistic activity of colon motility, late drop in blood pressure and respiratory resistance (in words) (NK-2 receptors [2]; cumulative administration i.v., antagonism detected 1 min. after administration had ended) | ED50 (NK-2 receptors [2]; iv, cumulative dosing, NKA stimulus 1 min. after administration, NK-2-mediated late drop in blood pressure, read-out: ED50 Blood pressure, i.v. after 1 min. (cumulative)) | ED50 (NK-2 receptors [2]; iv, cumulative dosing, NKA stimulus 1 min. after administration, respiratory resistance (bronchoconstriction), read-out: ED50 Respiratory resistance, i.v. after 1 min. (cumulative)) | ED50 (NK-2 receptors [2]; iv, cumulative dosing, NKA stimulus (200 pmol/animal i.v.) 1 min. after administration, colonic pressure, read-out: ED50 Colonic pressure, i.v. after 1 min. (cumulative)) | ED50 (NK-2 receptors [2]; iv, from AUC of antagonistic effect over 120 min after administration, colonic pressure, read-out: ED50 Colonic pressure, i.v. AUC over 120 min) | ED50 (NK-2 receptors [2]; iv, from AUC over 120 min after administration, NK-2-mediated drop in blood pressure, read-out: ED50 Blood pressure, i.v. AUC over 120 min) | ED50 (NK-2 receptors [2]; iv, from AUC over 120 min after administration, respiratory resistance, read-out: ED50 Respiratory resistance, i.v. AUC over 120 min) | ED50 (NK-2 receptors [2]; po, from AUC over 180 min after administration, NK-2-mediated drop in blood pressure, read-out: ED50 Blood pressure, p.o. AUC over 180 min.) | ED50 (NK-2 receptors [2]; po, from AUC over 180 min after administration, colonic pressure, read-out: ED50 Colonic pressure, p.o. AUC over 180 min.) | ED50 (NK-2 receptors [2]; po, from AUC over 180 min after administration, respiratory resistance, read-out: ED50 Respiratory resistance, p.o. AUC over 180 min.)
1 | CN(CC(CCN1CCN(C(c2ccsc2)[C@H](O)[C@@H](O)[C@H](O)CO)CC1)c1ccc(Cl)c(Cl)c1)C(=O)c1ccccc1 (mixture of isomers) [Example 7] | ≤ 10 nM | 0.251 nM | – | – | – | – | – | – | – | – | – | –
2 | CN(C[C@@H](CCN1CCN(C(c2ccsc2)[C@H](O)[C@H](O)CO)CC1)c1ccc(Cl)c(Cl)c1)C(=O)c1ccccc1 (stereo partly drawn) [Example 15, N-((2S)-2-(3,4-dichlorophenyl)-4-{4[(2S,3R)-2,3,4-trihydroxy-1-(3-thienyl)butyl]-1-piperazinyl}-butyl)-N-methylbenzamide] | ≤ 10 nM | – | marked NK-2-receptor-antagonistic activity | 0.114 µmol/kg | 0.079 µmol/kg | 0.041 µmol/kg | 0.009 µmol/kg | 0.047 µmol/kg | 0.042 µmol/kg | 8.6 µmol/kg | 4.5 µmol/kg | 3.2 µmol/kg
3 | CN(CC(CCN1CCN(C(c2ccsc2)[C@@H](O)[C@@H](O)[C@H](O)CO)CC1)c1ccc(Cl)c(Cl)c1)C(=O)c1ccccc1 (mixture of isomers) [Example 9] | ≤ 10 nM | 0.501 nM | – | – | – | – | – | – | – | – | – | –
4 | CN(CC(CCN1CCN(C(c2ccsc2)[C@@H](O)[C@H](O)[C@H](O)CO)CC1)c1ccc(Cl)c(Cl)c1)C(=O)c1ccccc1 (mixture of isomers) [Example 17] | ≤ 10 nM | 0.2 nM | – | – | – | – | – | – | – | – | – | –
